Test results reported in US8703964B2, “Bendamustine cyclopolysaccharide compositions” (Supratek Pharma Inc., priority 2009, dated 2014).

Key:
H460 cells = assay: Cytotoxicity of bendamustine composition comprising SBECD and LMWP, WST-1 (Example 24); assay type: cell-based; conditions: Homo sapiens, NCI-H460, 72 h, read-out: drug cytotoxicity (WST-1), Table 8
Experimental: (§1) RPMI8226, H69, MDA-MB-231, and H460 cells were maintained in appropriate medium, containing 10% FBS and antibiotics. 24 h after plating, bendamustine, and bendamustine formulated in SBECD/LMWP (40 mg/ml BM in 20% SBECD, 1% LMWP) were added in different concentrations to cell cultures and cells were grown for three days. The drug cytotoxicity was evaluated using WST-1 procedure.

H69 cells = assay: as above; assay type: cell-based; conditions: Homo sapiens, NCI-H69, 72 h, read-out: drug cytotoxicity (WST-1), Table 8
Experimental: as §1

MDA-MB-231 cells = assay: as above; assay type: cell-based; conditions: Homo sapiens, MDA-MB-231, 72 h, read-out: drug cytotoxicity (WST-1), Table 8
Experimental: as §1

RPMI8226 cells = assay: as above; assay type: cell-based; conditions: Homo sapiens, RPMI-8226, 72 h, read-out: drug cytotoxicity (WST-1), Table 8
Experimental: as §1

[1] = system: Human breast carcinoma MDA-MB 231 s.c. solid tumors; assay: Human breast carcinoma MDA-MB 231 s.c. solid tumors in nude mice (Example 28); assay type: in vivo, balb/c nu/nu mice; conditions: for Tumor weight after treatment, Average (SEM): 30 mg/kg days 1, 2, 9, 10
Experimental: balb/c mice aged 5 to 6 weeks were purchased from Charles River Canada Inc. The animals were kept 5 per cage with an air filter cover under light (12 light/dark cycle, light on at 6 H00) and temperature (22° C.±1° C.)-controlled environment. All manipulations of animals were performed under a sterilized laminar hood. The animals had ad libitum access to Purina mouse chow (Pro Lab PMH 4018, Trademark of Agway, Syracuse, N.Y.) and water. These animal studies were conducted according to the “Guidelines for Care and Use of Experimental Animals”. Tumor Cell Culture: Human breast cancer cells MDA-MB 231 were cultured in the appropriated culture medium. The cells were harvested in their logarithmic growth phase for the preparation of tumor implantation. Tumor Implantation: Human tumor or myeloma cells (2.5 to 5.0×10^6 cells) were implanted subcutaneously in 0.200 mL of medium containing 30% Matrigel on the two flanks of balb/c nu/nu mice through a 1 to 2 cm long 20-gauge needle. Treatments: 2 to 3 weeks after tumor cell implantation, animals that developed s.c. solid tumors were selected and divided into several homogeneous groups (n=5 animals per group or dose) with respect to tumor size (0.5 to 0.8 cm in diameter). The treatments were performed next day. The animals were dosed with the following dosing solutions. Control: (0.9%, NaCl) Compositions:
Subcutaneous solid tumor measurements were performed on the day of first injection and at 3- to 4-day intervals thereafter. The two largest perpendicular diameters of each tumor were measured with calipers and tumor sizes were estimated using the formula: TV=L×W/2 where TV: tumor volume; L: length; W: width. The body weights of animals were also noted.
The experiment was performed as described in example 27, using the following compositions for treatment:
non-formulated bendamustine, (30 mg/kg)
Bendamustine (30 mg/kg) in 40% SBECD (formulated BM)
The treatment was performed on days 1, 2, 9, and 10.

[2] = Bendamustine chemical stability in plasma, HPLC (Example 31); assay type: in vitro ADME; conditions: heparinized human plasma, 37° C., initially 0.015 mg/mL bendamustine; read-out: T½ in plasma (decomposition half time)
Experimental: Heparinized human plasma was spiked, 20 μL into 780 μL of plasma, with the following bendamustine (BM) compositions:
The concentration of bendamustine in plasma after spiking was initially 0.015 mg/mL. The spiked plasma samples were incubated at 37° C. A sample of 50 μL was periodically withdrawn from spiked plasma, and transferred into 200 μL of 100 mM HCl solution in acetonitrile, mixed and centrifuged. 50 μL of the supernatant was diluted 20 times with 95% acetonitrile, then 20 μL of diluted samples were separated on Waters SymmetryShield RP18 3.5 μm column (4.6×50 mm) using gradient of acetonitrile (0.1% TFA) in water (0.1% TFA), flow 1.5 mL/min. Peak detection was performed by means of fluorescence detection with […] at 327 nm and emission at 420 nm. The area of the peak of Bendamustine was used to evaluate the rate of drug decomposition in the first order kinetics model.

For Cn1c(CCCC(=O)O)nc2cc(N(CCCl)CCCl)ccc21 [BM, 4-[5-[bis(2-chloroethyl)amino]-1-methylbenzimidazol-2-yl]butanoic acid], the IC50 (H460 cells) was 601 µM, the IC50 (H69 cells) was 254 µM and the IC50 (MDA-MB-231 cells) was 600 µM. The IC50 (RPMI8226 cells) was 117 µM, the “Tumor weight after treatment, Average (SEM)” value (from here on “Tumor weight … (SEM)”) ([1]; day 0) was 0.203 (0.028) g and the “Tumor weight … (SEM)” value ([1]; day 2) was 0.238 (0.023) g. The “Tumor weight … (SEM)” value ([1]; day 5) was 0.267 (0.022) g, the “Tumor weight … (SEM)” value ([1]; day 7) was 0.313 (0.028) g and the “Tumor weight … (SEM)” value ([1]; day 9) was 0.388 (0.045) g. The “Tumor weight … (SEM)” value ([1]; day 12) was 0.497 (0.060) g, the “Tumor weight … (SEM)” value ([1]; day 14) was 0.550 (0.075) g and the “Tumor weight … (SEM)” value ([1]; day 16) was 0.594 (0.084) g. For the same compound, the “Tumor weight … (SEM)” value ([1]; day 19) was 0.684 (0.098) g, the “Real Tumor weight on day 19 in autopsy” value ([1]; 30 mg/kg, Day 1, 2, 9, 10) was 0.275 ± 0.052 g and the “Tumor weight on day 19 estimated from measurements of the tumor size” value ([1]; 30 mg/kg, Day 1, 2, 9, 10) was 0.684 ± 0.10 g. It also gave a half-life at 0.015 mg/mL [2] of 2.05 h.
